From patent US6087364A, “Dopamine D4 receptor antagonists” (Warner-Lambert Company, priority 1998, dated 2000)
Like-named read-outs stand apart in the source and are kept apart here.

Legend:
[1] = target: T1, human recombinant dopamine D4.2 receptor (Homo sapiens, UniProt P21917, DEL265-296); assay: D4.2 dopamine receptor binding assay ([3H]spiperone, membranes of CHO K1 cells); details: human D4.2 receptor, 0.2 nM [3H]spiperone, 60 min, 25° C., apparent Ki from IC50 (Cheng and Prusoff)
T1 construct: expressed in transfected cells
T1 sequence (P21917 with tags, fused parts or gaps DEL265-296): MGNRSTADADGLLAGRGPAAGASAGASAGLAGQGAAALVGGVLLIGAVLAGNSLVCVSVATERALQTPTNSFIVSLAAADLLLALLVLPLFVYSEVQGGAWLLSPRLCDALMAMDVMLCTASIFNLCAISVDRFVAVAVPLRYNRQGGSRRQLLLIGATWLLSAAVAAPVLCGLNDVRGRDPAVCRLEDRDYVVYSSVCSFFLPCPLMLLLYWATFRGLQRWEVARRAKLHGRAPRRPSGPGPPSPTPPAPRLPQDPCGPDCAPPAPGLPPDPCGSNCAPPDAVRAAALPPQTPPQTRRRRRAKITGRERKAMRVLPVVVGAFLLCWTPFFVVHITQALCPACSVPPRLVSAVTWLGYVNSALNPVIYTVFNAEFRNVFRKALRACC
Source text: (§1) A cell line expressing human dopamine D2 (Long form) receptors was purchased from Oregon Health Sciences University, Portland, Oreg. The D2 receptor cDNA was subcloned into an expression vector, pRc/CMV. The plasmids were transfected by electroporation into CHO K1 cells. A single stable transfectant, resistant to the antibiotic G418, was isolated and selected for use in the binding studies. For D4 binding, CHO K1 cells stably transfected to express the human recombinant dopamine D4.2 receptor subtype, as described by Shih, et al., "The Expression and Functional Characterization of Human Dopamine D4.2 Receptor in CHO K1 Cells," Soc. Neurosci., 21(Part 1): 621 (1995).
(§2) CHO K1 cells expressing either human D2 and D4.2 receptors were grown in 162 cm^2 culture flasks in F12 medium (Gibco Laboratories, Grand Island, N.Y.) supplemented with 10% fetal bovine serum (FBS, Hyclone, Logan, Utah) in an atmosphere of 5% CO2 /95% air at 37° C. Cells were grown until confluent, after which growth medium was removed and replaced with 0.02% ethylene diamine tetracetate (EDTA) in a phosphate-buffered saline solution (Sigma Chemical Co., St. Louis, Mo.) and scraped from the flasks. The cells were centrifuged at about 1000× g for 10 minutes at […] and then resuspended in TEM buffer (25 mM Tris-HCl, pH 7.4, 5 mM EDTA, and 6 mM MgCl2) for D2 or the D4.2 buffer (50 mM Tris-HCl, pH 7.4, 5 mM EDTA, 1.5 mM CaCl2, 5 mM KC1, and 120 mM NaCl) and homogenized. The membranes were pelleted by centrifugation at 20,000× g at […] for 20 minutes. Then the pellets were resuspended in appropriate buffer at 1 mL/flask and stored at -70° C. until used in the receptor binding assay.
(§3) After 60 minutes incubation at 25° C., the incubations were terminated by rapid filtration through Whatmann GF/B glass fibre filters (soaked for 1 hour in 0.5% polyethylenimine) on a cell harvester, with three washes of 1 mL ice-cold buffer. Individual filter disks containing the bound ligand were placed in counting vials with 4 mL of scintillation fluid (Ready Gel, Beckman Instrument Inc., Fullerton, Calif.) and then counted in a Beckman LS-6800 liquid scintillation counter at an efficiency of 45%. Nonspecific binding was defined in presence of 1 mM of haloperidol.
(§4) Saturation and competition binding data were analyzed using an iterative nonlinear least-square curve-fitting Ligand program. […] Experimental compounds were made up as stock solutions in dimethyl sulfoxide (DMSO). […] Each observation was carried out in triplicate. To allow these calculations, Kd values were measured for the interaction of various ligands with the receptor.

[2] = tested on: amphetamine-stimulated locomotion; assay: Blockade of Amphetamine-Stimulated Locomotion (BASL) in Rats; type: in vivo, Male Sprague-Dawley rats; details: Rattus norvegicus, 0.5 h, read-out: BASL ED50, mg/kg PO (dose which would reverse amphetamine-stimulated locomotion by 50%), drug 30 minutes prior to test, amphetamine 0.5 mg/kg IP 15 minutes prior to test, 30 minute test
Source text: Blockade of Amphetamine-Stimulated Locomotion (BASL) in Rats
Hyperactivity of brain dopamine (DA) neuronal systems is believed to contribute to the symptomology of schizophrenia. This hypothesis is supported, in part, by the ability of drugs such as the indirect DA agonist, amphetamine, to exacerbate schizophrenia. The stimulatory effect of amphetamine can be blocked by one of two mechanisms: a postsynaptic blockade of DA receptors, or by the action of DA autoreceptor agonists at inhibitory presynaptic DA receptor sites. Currently available antipsychotic drugs are DA receptor antagonists; however, these compounds can also cause extrapyramidal side effects apparently due to complete postsynaptic receptor blockade. Antipsychotic agents produce sedation (manifested as decreased locomotion) in normal animals, as well as in animals treated with psychomotor stimulants by reducing the access of endogenous DA to postsynaptic receptors in the brain.
Male Sprague-Dawley rats (Harlan Labs) were used for these studies. Drugs were dissolved in saline or water and administered either orally (PO) or intraperitoneally (IP) in volumes of 5 mL/kg. Saline control rats and amphetamine (0.5 mg/kg IP) control rats are included with each study (n=4-6 rats per treatment group). for the IP studies, amphetamine is given 20 minutes prior to the drug, after which a 30 minute locomotor activity test is conducted. For the oral study, drug is dosed 30 minutes prior to test, while amphetamine is given 15 minutes prior to test, which allows time for oral absorption. Locomotor activity (centimeters travelled per 30 minute test) is measured in 16"×16" open chambers. Amphetamine generally produces a 2- to 3-fold increase in locomotion over saline controls. Drug effects are reported as percent reversal of amphetamine-stimulated locomotion. Significant changes in amphetamine-stimulated locomotion, relative to amphetamine-treated controls, were determined by t-test.

[3] = target: human dopamine D2 (Long form) receptor (Homo sapiens, UniProt P14416); assay: D2 dopamine receptor binding assay ([3H]spiperone, membranes of CHO K1 cells)
Source text: as §1, §2, §3, §4

Sequence of human dopamine D2 (Long form) receptor (P14416 whole entry): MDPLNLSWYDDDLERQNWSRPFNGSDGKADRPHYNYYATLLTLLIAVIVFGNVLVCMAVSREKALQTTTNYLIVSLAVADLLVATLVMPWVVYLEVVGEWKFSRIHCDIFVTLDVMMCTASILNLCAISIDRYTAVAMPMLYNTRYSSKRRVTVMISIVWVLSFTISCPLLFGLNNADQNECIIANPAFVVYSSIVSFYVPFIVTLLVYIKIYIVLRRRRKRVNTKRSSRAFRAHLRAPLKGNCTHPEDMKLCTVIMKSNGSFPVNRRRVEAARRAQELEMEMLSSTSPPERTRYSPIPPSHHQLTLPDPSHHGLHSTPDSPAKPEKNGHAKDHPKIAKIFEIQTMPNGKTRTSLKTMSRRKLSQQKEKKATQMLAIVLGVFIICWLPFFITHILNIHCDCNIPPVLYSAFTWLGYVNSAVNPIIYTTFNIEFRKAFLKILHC

| SMILES | Ki [1] [nM] | ED50 [2] [mg/kg] | Ki [3] [nM] | Ki ([3]; human D2 receptor, CHO K1 membranes, 0.2 nM [3H]spiperone, 60 min, 25° C., apparent Ki from IC50 (Cheng and Prusoff)) [nM] |
| --- | --- | --- | --- | --- |
| Cc1ccc(N2CCN(CCC3NC(=O)c4ccccc43)CC2)cc1C (single isomer, unassigned; (+)) [(+)-3-{2-[4-(3,4-Dimethyl-phenyl)-piperazin-1-yl]-ethyl}-2,3-dihydro-isoindol-1-one] | 42 |  |  |  |
| Cc1ccc(N2CCN(CCC3NC(=O)c4ccccc43)CC2)cc1C (single isomer, unassigned; (-)) [(-)-3-{2-[4-(3,4-Dimethyl-phenyl)-piperazin-1-yl]-ethyl}-2,3-dihydro-isoindol-1-one] | 7.8 | 1.5 |  |  |
| Cc1nc(N2CCN(CCC3NC(=O)c4ccccc43)CC2)sc1C (stereo not drawn) [3-[2-(4-(4,5-Dimethyl-thiazol-2-yl)-piperazin-1-yl)-ethyl]-2,3-dihydro-isoindol-1-one] | 20.8 |  | > 5880 |  |
| O=C1NC(CCN2CCC(=C(c3ccccc3)c3ccccc3)CC2)c2ccccc21 (stereo not drawn) [3-[2-(4-(Diphenylmethylene)-piperidin-1-yl)-ethyl]-2,3-dihydro-isoindol-1-one] | 99.7 |  | 2150 |  |
| Cc1ccc(N2CCN(CCC3NC(=O)c4ccccc43)CC2)cc1 (stereo not drawn) [3-[2-(4-P-Tolyl-piperazin-1-yl)-ethyl]-2,3-dihydro-isoindol-1-one] | 12.4 | < 1 | > 5880 |  |
| O=C1NC(CCN2CCN(c3ccccc3)CC2)c2ccccc21 (stereo not drawn) [3-[2-(4-Phenyl-piperazin-1-yl)-ethyl]-2,3-dihydro-isoindol-1-one] | 24.5 |  |  |  |
| O=C1NC(CCN2CCN(c3ccc(Cl)cc3)CC2)c2ccccc21 (stereo not drawn) [3-[2-(4-p-Chlorophenyl-piperazin-1-yl)-ethyl]-2,3-dihydro-isoindol-1-one] | 27.8 |  | > 5880 |  |
| COc1ccc(N2CCN(CCC3c4ccccc4C(=O)N3C)CC2)cc1 (stereo not drawn) [3-[2-(4-p-Methoxyphenyl-piperazin-1-yl)-ethyl]-2,3-dihydro-2-methyl-isoindol-1-one] | 37.3 |  | > 5880 |  |
| Cc1ccc(N2CCN(CCC3NC(=O)c4ccccc43)CC2)cc1C (stereo not drawn) [3-{2-[4-(3,4-Dimethyl-phenyl)-piperazin-1-yl]-ethyl}-2,3-dihydro-isoindol-1-one] | 8.77 | 3 |  |  |
| Cc1ccc(C2CCN(CCC3NC(=O)c4ccccc43)CC2)cc1C (stereo not drawn) [3-{2-[4-(3,4-Dimethyl-phenyl)-piperidin-1-yl]-ethyl}-2,3-dihydro-isoindol-1-one] | 9.27 |  |  | 1210 |
| Cc1ccc(N2CCN(CCC3NC(=O)c4ccccc43)CC2)nc1 (stereo not drawn) [3-{2-[4-(5-Methyl-pyridin-2-yl)-piperazin-1-yl]-ethyl}-2,3-dihydro-isoindol-1-one] | 22.6 |  | > 5880 |  |
